Columns and labels:
[1] = tested on: isolated perfused rat lungs; assay: Incorporation of [2-(14)C] labeled pyruvate into lung surfactants; conditions: inhalation studies, without calcium, phosphate and magnesium
[2] = tested on: Asthmatic and COPD patients; assay: Phase I/II clinical trials of sodium pyruvate in saline by inhalation; type: in vivo, human
[3] = tested on: patients suffering from severe lung injury or mitochondrial damage or COPD and Hypoxemia; assay: Two months nebulized treatment, lung capacity; type: in vivo, human; conditions: phosphate and magnesium
Excerpt: Total lung capacity is the volume in the lungs at maximal inflation, the sum of VC and RV. RV is the residual volume of air remaining in the lungs after a maximal exhalation. VC vital capacity is the volume of air breath out after the deepest inhalation. Vital capacity in males is 4.8 liters and in women 3.8 liters. Slow vital capacity (SVC) is the maximum volume of air that can be exhaled slowly after slow maximum inhalation. Three male patients suffering from severe lung injury or mitochondrial damage or COPD and Hypoxemia were treated as described below for two (2) months. […] In fact, dramatic results were observed within two (2) weeks.
[…] The sterile pyruvate 15 solution is placed into a “Pulmo Aid” nebulizer manufactured by DeVilbiss Co., Somerset, Pa. 15501-0635. The sterile pyruvate solution is nebulized by the Pulmo Aid device fitted with a disposable nebulizer and inhaled by the patient. The patient inhales normally from the Pulmo Aid nebulizer until all of the solution has been nebulized and inhaled. This inhalation step typically takes about ten (10) to twenty 20 (20) minutes. The patients were treated with this inhalation therapy periodically. Initially, treatments are about four (4) times a day at about six (6) hour intervals. Treatments were reduced to three (3) times a day at about eight (8) hour intervals after 20 days of therapy. […]

[4] = tested on: subjects diagnosed with Severe COPD requiring supplemental oxygen; assay: SaO2 pilot study, single inhalation dose, blinded cross-over; type: in vivo, human
Method: A total of five (5) subjects diagnosed with Severe COPD (chronic bronchitis or emphysema) and requiring supplemental oxygen at rest were enrolled in this study at the University of Connecticut. Each subject received a single inhalation dose of either 0.5 mM sodium pyruvate, 5.0 mM sodium pyruvate or 0.9% sodium chloride at each Study Visit. The dose was administered in a blinded cross-over manner at 1 week intervals; such that all subjects received each study compound. Safety and therapeutic efficacy were evaluated by the following measurements: spirometry, expired breath NO level, SaO2, vital signs, and follow-up telephone interviews.
The study was conducted in four visits: a Screening Visit and Study Visits 1-3. The effect of the inhalation of a single dose of sodium pyruvate (0.5 mM and 5.0 mM) or placebo (0.9% sodium chloride) was studied in a double-blind protocol. The primary efficacy outcome objective was the SaO2 levels for all subjects. In addition, COPD subjects were evaluated by lung function (FEV1 and PEF) and expired breath NO levels obtained just prior to and then at 60 minutes and at 3 hours in the second study, following the administration of the particular sodium pyruvate dose.

[5] = tested on: patients with hypoxemia with and without lung diseases; assay: Comparison of 5 ml of 5 mM sodium pyruvate saline formulas (Table III); type: in vivo, human; conditions: 5 ml of 5 mM formula
[6] = tested on: patients with Allergic Rhinitis other lung diseases; assay: Two-year log of 367 patients using the 20 mM sodium pyruvate nasal spray (Table XIII); type: in vivo, human; conditions: healthy patients with no underlying diseases; 20 mm in at least 0.9% sodium chloride
Method: Table XIII. 367 patients over a two-year period. Each patient was provided with a log page to record the effect of inhaled 20 mM sodium pyruvate surfactant enhancer formula. The FDA has recommended that we do a phase three clinical for Allergic Rhinitis for patients where steroids are counter indicated i.e. Children, pregnant women and diabetics. Percentage measurements in patients with Allergic Rhinitis other lung diseases. 20 mM sodium pyruvate formula in 0.9% saline […] was inhaled. Overall rating was 1-10 with 1 being the most negative and 10 being the best result. The increase in nasal and lung surfactants and nasal and lung nitric oxide inhibited the docking and adhesion of viruses in the patients listed below with especially in patients with diabetes or hypoxemia. All these viruses including coronavirus, the flu (influenza A or B) and rhinovirus were unable to dock on the ACE2 type receptor and reduced the rate, severity, duration and spread of the viruses.

[7] = tested on: COPD patients with Allergic Rhinitis; assay: 20 mM sodium pyruvate nasal sprays over three months (Table VI); type: in vivo, human; conditions: 20 mM nasal spray
[8] = tested on: patients with lung diseases including COPD; assay: Comparison of inhaled salts of pyruvate, 5 ml of 0.5 mM solution (Table I)
[9] = 5 ml of the 0.5 mM solution in saline
[10] = 5 ml of 0.5 mM solution, inhaled

## CC(=O)C(=O)[O-].[Na+] [Sodium, sodium pyruvate]
[1]
  incorporation into synthesized phospholipids: not incorporated into synthesized phospholipids
[2]; [9]
  increasing FEV1 values: over 12%
  reducing nitric oxide: 19.2%
[2]; higher concentrations 1.5 mM or 5.0 mM in saline
  FEV1 values: did not increase FEV1 values
[2]; solutions of 1.5 to 5 mM
  increase nitric oxide levels: 19%
[3]; one of the three patients, end of the two months, without calcium
  improvement in SaO2 levels: 3%
[3]; same three patients, formulas without the calcium
  improvement in lung functions, especially total lung capacity: no or little improvement in lung functions
[4]; 0.5 mM and 5.0 mM single dose
  Adverse Events: no Adverse Events
[4]; 5 mM inhaled solution
  Nitric oxide levels increased: 19%
[4]; single inhalation of 0.5 mM or 5.0 mM in saline
  change in the FEV1 or SaO2 compared to pre inhalation values: No significant change
[5]; inhaled
  Percentage Increase in FEV-1 over baseline: 4.0%
  Percentage Increase in SaO2 over baseline: 0%
  Percentage increase of Nitric Oxide over baseline: 18.0%^
  Relief of Congestion and lung tightness 1-10: 5
  Relief of coughing percentage decrease in four hours: 15%
[5]; 1 most negative, 10 best
  Overall Rating 1-10: 7
[6]
  amount of flu or colds reduced: 52%
  duration of the infection symptoms in days reduced: 56%
[7]
  Overall Rating 1-10: 7
  Percentage decrease in COPD symptoms: 18.0%
  Percentage decrease in us of RX medications: 20%
  Rating 1-10 Congestion and lung tightness: 5
  Rating 1-10 decrease in shortness of breath: 6.0
  Relief of coughing. Percentage Daily decrease: 15%
[8]; 5 ml of 0.5 mM solution in physiological saline, inhaled
  Increased in FEV-1% lung function: 13.0%
[8]; [10]
  Irritation: none
  Percentage Increase in SaO2 over baseline: 0.5%
  Percentage decrease or increase of Nitric Oxide over baseline: −19.0%
  Relief of congestion, coughing and lung tightness: 5
[8]; 5 ml of 0.5 mM solution, 1 most negative, 10 best
  Overall Rating 1-10: 8
[8]; 5 mls of a 0.5 mM pyruvate inhalation solution in COPD and asthmatic patients
  FEV1: ≥ 12%
